The test system of data set [1] is cytochrome p450 (CYP) IAI gene. Nature of the data set: MC RT-PCR with Celi competitive templates, induction of CYPIAI gene expression. In kind it is cell-based, human. The conditions noted are these: BEP2D cells incubated with β-napthoflavone (10 μM); control 0.1% DMSO; about the same cDNA loading by GAPDH reference gene. As for the experimental part:
In a second set of experiments, multiplex competitive reverse transcriptase polymerase chain reaction (MC RT-PCR) with competitive templates were prepared by the Celi method to evaluate the cytochrome p450 (CYP) IAI gene in β-napthoflavone-exposed BEP2D cells. The induction of CYPIAI gene expression was evaluated using both MC RT-PCR with Celi competitive templates, and Northern analysis. Competitive templates were prepared for both the CYPIAI and GAPDH genes. The primers used to prepare the competitive template for GAPDH were: […]
The PCR amplification conditions were the same as described for experiments using the competitive templates prepared for GAPDH and GSHPx by the Higuchi method except the annealing temperature was 55 degrees centigrade and the amplification was carried out for 38 cycles.
Because the native and competitive templates separate without prior restriction endonuclease digestion, samples were taken directly from the PCR reaction tube and applied to ethidium bromide stained 3% Nusieve, 1% LE agarose gels. It was then possible to quantify the products by taking a negative photograph of the gel using Polaroid 665 positive/negative instant film, subjecting the negative photograph to densitometry. […]

Data set [2] concerns cytochrome p450 IA1 (CYPIAI). Nature of the data set: Northern analysis of CYPIAI gene expression. The class given is cell-based, human. The conditions noted are these: BEP2D cells incubated with β-napthoflavone (10 μM); control 0.1% DMSO; 32P-labeled CYPIAI cDNA probe. Here is the method:
RNA from BEP2D cells incubated for varying times with β-napthoflavone (10 μM) was either electrophoresed on a 1% LE formaldehyde denaturing gel for Northern analysis or MC RT-PCR amplified, as described above. For Northern analysis, following transfer of the RNA to GeneScreen, the filters were hybridized with ^32P-labeled CYPLAI cDNA.

The structures appear in SMILES notation.

Turning to `O=c1cc(-c2ccccc2)oc2ccc3ccccc3c12` [β-napthoflavone], in data set [1], the “band representing the native CYPIAI gene, exposed cells compared to control cells” value was “much more strongly represented”. In addition, the “gene expression of the CYPIAI gene” value in data set [2] was “increase”.

Values taken from patent US20060183144A1, “Methods and compositions for assessing nucleic acids” (Medical College of Ohio, priority 2005, published 2006).
